Laboratory results published in PubChem BioAssay (NCI).
Several values for one entry are separate records, joined by “and”; a condition that tells them apart may be missing. Identical values can stand only once.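 Tested at 5 concentrations; 48 h exposure; 96-well plates; endpoints linearly interpolated, else capped at highest concentration. The concentration for 50% growth inhibition is given as GI50. At the TGI there is no net growth.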

Tests used:
Test in all cases: NCI-60 cell line screen, 48 h
HOP-92 NSCLC = test system: HOP-92 NSCLC
TK-10 renal = test system: TK-10 renal
NCI-H23 lung = test system: NCI-H23 lung
HOP-62 NSCLC = test system: HOP-62 NSCLC
SK-MEL-28 melanoma = test system: SK-MEL-28 melanoma
UACC-257 melanoma = test system: UACC-257 melanoma
SNB-75 CNS = test system: SNB-75 CNS
HT29 colon = test system: HT29 colon
SF-268 CNS = test system: SF-268 CNS
RPMI-8226 leukemia = test system: RPMI-8226 leukemia

| SMILES | TGI (HOP-92 NSCLC) [µM] | TGI (TK-10 renal) | TGI (NCI-H23 lung) [µM] | TGI (HOP-62 NSCLC) | TGI (SK-MEL-28 melanoma) [µM] | TGI (UACC-257 melanoma) [µM] | TGI (SNB-75 CNS) [µM] | TGI (HT29 colon) [µM] | TGI (SF-268 CNS) [µM] | TGI (RPMI-8226 leukemia) | GI50 (HOP-92 NSCLC) [µM] | GI50 (TK-10 renal) [µM] | GI50 (HOP-62 NSCLC) [µM] | GI50 (UACC-257 melanoma) [µM] | GI50 (SNB-75 CNS) [µM] | GI50 (HT29 colon) [µM] | GI50 (SF-268 CNS) [µM] | GI50 (RPMI-8226 leukemia) [µM] | GI50 (SK-MEL-28 melanoma) [µM] | GI50 (NCI-H23 lung) [µM] |
| --- | --- | --- | --- | --- | --- | --- | --- | --- | --- | --- | --- | --- | --- | --- | --- | --- | --- | --- | --- | --- |
| COc1cc(C2S/C(=C/c3ccccc3)C(=O)N2c2ccc(NC(C)=O)cc2)cc(OC)c1OC (centres undefined) | 83.6 | > 100 µM | 66.8 | > 100 µM | > 100 | > 100 | 37.5 | 32 | 83.3 | – | – | – | – | – | – | – | – | – | – | – |
| COc1ccc(-c2csc(=Nc3ccccc3)n2CCCN(C)C)cc1 | > 100 | 29.8 µM | 48.5 | 28.3 µM | 58.1 | 37.5 | 19.3 | – | 56.4 | 60.8 µM | – | – | – | – | – | – | – | – | – | – |
| COc1cc([C@@H]2c3cc4c(c(O)c3C[C@H]3COC(=O)[C@@H]32)OCO4)cc(OC)c1OC | – | 37.5 µM and 167 µM and > 100 µM | – | 57.9 µM and 218 µM and > 100 µM | – | – | – | – | – | 27.4 µM and > 241 µM | 8.17 | 0.505 | 0.249 | > 100 | 0.0203 | 1.18 | 0.501 | – | – | – |
| Cc1nc2c(c(=O)[nH]1)S/C(=C(/C#N)c1nc3ccccc3[nH]1)N2c1ccccc1 | > 100 | > 100 µM | > 100 | > 100 µM | > 100 | > 100 | > 100 | > 100 | > 100 | > 100 µM | – | – | – | – | – | – | – | – | – | – |
| C=C(C)C(=O)O[C@H]1CC2=C[C@@H](C[C@@]3(C)O[C@@H]3[C@H]3OC(=O)C(=C)[C@@H]31)OC2=O | 2.78 | – | 6.59 | 98.9 µM | 3.61 | 5.63 | 18.4 | 5.93 | 2.56 | 26.3 µM | – | – | – | – | – | – | 0.34 | 0.915 | 1.24 | – |
| NC(CSCc1ccc(I)cc1)C(=O)O (centres undefined) | > 100 | > 100 µM | > 100 | > 100 µM | > 100 | > 100 | > 100 | > 100 | > 100 | > 100 µM | – | – | – | – | – | – | – | – | – | – |
| CC(=O)N1N=C(c2ccc3ccccc3c2O)CC1c1cccs1 (centres undefined) | > 100 | > 100 µM | > 100 | > 100 µM | > 100 | > 100 | > 100 | > 100 | > 100 | 47.1 µM | – | – | – | – | – | – | – | – | – | – |
| CCOC1=NC(C(F)(F)F)(C(F)(F)F)N=C(N2CCOCC2)O1 | > 100 | > 100 µM | > 100 | – | > 100 | > 100 | > 100 | > 100 | > 100 | > 100 µM | – | – | – | – | – | – | – | – | – | – |
| COc1nc2ccc(COc3ccc(C(=O)NC(CCC(=O)O)C(=O)O)cc3)cc2nc1OC (centres undefined) | > 10 | > 10 µM | > 10 | > 10 µM | > 10 | > 10 | > 10 | > 10 | > 10 | > 10 µM | – | – | – | – | – | – | – | – | – | – |
| O=C1C(Cl)N(c2cccc(Cl)c2)C1c1c[nH]c2ccccc12 (centres undefined) | > 100 | > 100 µM | > 100 | > 100 µM | > 100 | > 100 | > 100 | > 100 | > 100 | > 100 µM | – | – | – | – | – | – | – | – | – | – |
| c1ccc(N2N=C(c3cccc(Nc4ccncc4)c3)CC2c2ccc3c(c2)OCO3)cc1 (centres undefined) | 2.47 | 3.99 µM | 4.04 | – | 3.14 | 4.09 | 3.74 | – | 3.75 | – | 1.1 | 1.94 | – | 2 | 1.47 | – | 1.79 | – | 1.66 | 1.94 |
| NC(=S)N/N=C/c1nccc2ccccc12 | > 100 | > 100 µM | 6.42 | > 100 µM | > 100 | – | 13.6 | > 100 | 4.04 | > 100 µM | – | – | – | – | – | – | – | – | – | – |
| CC[C@@H]1ON(C)[C@H]2CN(C)C(=O)[C@@H]12 | > 100 | > 100 µM | > 100 | > 100 µM | > 100 | > 100 | – | > 100 | – | > 100 µM | – | – | – | – | – | – | – | – | – | – |
| COc1ccc2c(c1O)-c1cc(O)cc3c1[C@@H](C2)N(C)CC3 | 73.6 | – | 257 | 106 µM | 157 | 138 | 124 | 223 | 229 | 286 µM | – | – | – | – | – | – | – | – | – | – |
